Laboratory results from a melting point compilation (Tetko et al.).

With COC(=O)c1sc(-c2ccccc2)cc1N the melting point was 147 to 149 °C.

Work on O=C(/C=C/c1ccc(Cl)c(Cl)c1)c1ccc2ccccc2c1 yielded a melting point of 153 °C.

Molecule CC1(C)c2ccccc2NC1C(=O)O (stereo not drawn) has a melting point of 72 to 82 °C.

S=c1nnc(-c2ccccc2)c(Nc2ccccc2Cl)[nH]1 gave a melting point of 314 °C.

For ON=C(c1ccccc1)c1ccccc1, the melting point was 140 to 144 °C.

Work on ClCOc1ccc(Cl)cc1 yielded a melting point of 29 to 30 °C.

In the case of CC(/N=N/c1cc(Cl)cc(Cl)c1O)=C(/C(=O)N1CCOCC1)N1CCOCC1, the melting point is reported as 76.5 °C.

Molecule CCOC(=O)NN has a melting point of 46 °C.

With O=C(O)c1ccc2nccn2c1 the melting point was 250 °C.

Molecule CC(F)(F)C(=O)O has a melting point of 43 °C.

Molecule O=C1c2ccccc2-c2ccc3c4ccc5c6c(ccc(c7ccc1c2c73)c64)C(=O)c1ccccc1-5 has a melting point of 492 °C.

OCC(F)(F)C(F)(F)CO showed a melting point of 85 to 87 °C.

[O-][P+](c1ccccc1)(c1ccccc1)C1C=C(c2ccccc2)OC2=C1CCCC2 (stereo not drawn) gave a melting point of 177 °C.

With CN1C(=O)NC(=O)C(C)(C2=CCCCC2)C1=O (stereo not drawn) the melting point was 146 °C.

Work on COc1ccc2cc(-c3ccn[nH]3)ccc2c1 yielded a melting point of 201 °C.

In the case of O=C(c1cccs1)c1noc(-c2ccc([N+](=O)[O-])cc2)c1S(=O)(=O)c1ccccc1, the melting point is reported as 139 °C.

Molecule CC(=O)Nc1cc(N=Nc2ccccc2)c(C)c(NC(C)=O)c1 has a melting point of 255 °C.

With O=C1CN2CCOC2(c2ccccc2F)c2cc(Br)ccc2N1 (stereo not drawn) the melting point was 185 °C.

Molecule COc1ccc(Cl)cc1C=O has a melting point of 77 °C.

Molecule CC(C)(C=O)C(c1ccccc1)C(C(=O)O)C(=O)O (stereo not drawn) has a melting point of 153 °C.

NC(CCP(=O)(O)O)C(=O)O (racemic) showed a melting point of 225 to 228 °C.

With CC12CCC(=O)C=C1CCC1C2C(O)CC2(C=O)C(C(=O)CO)CCC12 (stereo not drawn) the melting point was 167 °C.

With CSc1nc2ncc(C(=O)O)c(N)n2n1 the melting point was 278 to 281 °C.

With O=c1nc2ccccc2nc(C(F)(F)F)c1NNc1ccc(Cl)cc1 the melting point was 151 °C.

CC1(C)OC(C)(C(O)(c2ccccc2)c2ccccc2)CCC1C(=O)O (stereo not drawn) gave a melting point of 163 °C.

With Cc1ccc(C(=O)[C@@H]2CCCC[C@H]2C(=O)O)cc1 (relative stereo) the melting point was 168 to 171 °C.

For O=Cc1nc(-c2ccccc2Cl)c2cc(Cl)ccc2n1, the melting point was 159 to 160 °C.

Work on Clc1c(Cl)c(Cl)c2c(c1Cl)Oc1c(Cl)c(Cl)c(Cl)c(Cl)c1O2 yielded a melting point of 330 °C.

With Clc1ccc(/C=C(\Oc2ccc(Cl)cc2Cl)c2nc3ccccc3s2)cc1 the melting point was 156 °C.

For CCOC(=O)C1=C(C)Nc2ccccc2S1, the melting point was 143 °C.

For CNC(=O)N(C)c1nnc(C(F)(F)F)s1, the melting point was 136 °C.

N#Cc1ccc(N)c(Br)c1 showed a melting point of 106 to 111 °C.

For CC(Cc1ccccc1)NCCC(c1ccccc1)c1ccccc1 (stereo not drawn), the melting point was 38 °C.

Cc1ccc(NN=C2SC(=N)NC2=O)cc1 showed a melting point of 265 °C.

Cc1nc(NS(=O)(=O)c2ccc(N)cc2)oc1C showed a melting point of 193 °C.

Cc1cc(=O)oc2cc(O)cc(O)c12 gave a melting point of 299 °C.

Cc1nc(Br)ccc1Br gave a melting point of 38 °C.

In the case of Ic1ccc(N2CCOCC2)nc1, the melting point is reported as 133 °C.

Cc1ccc(CNC(=O)c2cc([N+](=O)[O-])cc([N+](=O)[O-])c2)c(C)c1 showed a melting point of 180 °C.

In the case of COC(=O)c1sc2c(c1N)CSc1ccc(Cl)cc1-2, the melting point is reported as 120 °C.

With COc1ccc(C=CC(=O)Cl)c(Cl)c1OC the melting point was 86 to 88 °C.

In the case of Cc1nc2ccccc2c(=O)n1-c1ccccc1Cl, the melting point is reported as 126 °C.

Work on O=[N+]([O-])OC1COC2C(O[N+](=O)[O-])COC12 (stereo not drawn) yielded a melting point of 61 °C.

For O=C(O)C=Cc1c[nH]cn1, the melting point was 225 °C.

With O=c1ccocc1 the melting point was 32.5 °C.

Oc1ccc2ccccc2c1Br showed a melting point of 84 °C.

Molecule Cc1nccc(-c2cccc(Br)c2)n1 has a melting point of 66 to 69 °C.

With Clc1ccc(CSC(Cn2cncn2)=Nc2ccc(Cl)cc2Cl)cc1 the melting point was 90 °C.

CC(C)(C)c1cnc(C(=O)Nc2cc(C(F)(F)F)cc(C(F)(F)F)c2)cn1 showed a melting point of 136 °C.

CC(=O)OC1CCC2(C)C3CCC4=C(CCC4(C)C(C)OC(C)=O)C3CCC2(C)C1 (stereo not drawn) gave a melting point of 117 to 119 °C.

COC(=O)c1cc(Cl)ccc1NC(C)=O showed a melting point of 130 °C.

Work on S=c1cn[nH]c(=S)[nH]1 yielded a melting point of 209 to 210 °C.

Molecule FC(F)(F)c1nnc(S)n1/N=C/c1ccccc1 has a melting point of 233 °C.

CC(C)NCC(O)c1cc(O)cc(O)c1 (stereo not drawn) showed a melting point of 100 °C.

For CC(=O)c1cccc(N=C=S)c1, the melting point was 26 to 28 °C.

CNC(C)Cc1ccc(O)cc1 (stereo not drawn) gave a melting point of 161 °C.

With COc1ccc(C2C(=O)c3ccccc3C2=O)cc1 the melting point was 156 °C.

Work on O=C(Cc1ccccc1)C(=O)C(Br)c1ccccc1 (stereo not drawn) yielded a melting point of 73 °C.

With CC(C)C(=NO)C(C)C the melting point was 34 °C.

CCCCCCCCCCOc1c(OC)cc(C(N)=O)cc1OC showed a melting point of 122 °C.

O=C1CCN(C(=O)CCl)N1 gave a melting point of 146 °C.

For Cc1c(-c2ccccc2)sc2ncnc(Cl)c12, the melting point was 133 to 135 °C.

In the case of C#CC(=C)C, the melting point is reported as -113 °C.
